Test results published in patent US11485728B2, “Small molecules for the treatment of autoimmune diseases and cancer” (Athos Therapeutics, Inc., priority 2020, dated 2022).

Tests used:
[1] = system: C57BL/6 mice with DSS colitis; experiment: DSS colitis in C57BL/6 mice; assay type: in vivo; settings: for Clinical Score: includes weight, bleeding, diarrhea, rectal prolapse; for protection against colitis induced weight loss / colitis-induced weight loss / colon length shortening: daily oral gavage; for protection against colitis induced weight loss: after d11; for colitis-induced weight loss / colon length shortening: d12; for Clinical Score: key: −: indicates no statistically significant effect in the variable measured when compared with the control group; +: indicates a statistically significant difference in the variable measured when compared with the control group; ++: indicates measurements that include multiple variables in the calculation of their differences when compared with the control group, and represents the presence of significant changes across all variable measurements
Description: Dextran sodium sulfate (DSS) was added to the water 24 hrs after compound administration and weight was measured daily.
C57BL/6 mice (20-22 grams) were fed ad lib and assigned to 4 different groups (n=8/group). […] A control group received vehicle alone. After 24 hrs, mice were weighed and DSS was added to their drinking water. Mice were then treated with the test compounds and weighed daily and the DSS water was replenished every 72 hrs for 5 days, at which point, it was replaced by regular drinking water. Mice were sacrificed on day twelve and clinical scored was assessed. Intestinal tissue for and blood were also collected. Tissues were either flash frozen and kept in −80° C. for RNA and protein isolation or placed in 10% formalin solution for future histological analysis. Blood was spun at 5K rpm for 5 min and serum was collected and kept at −20° C. for multiplex cytokine analysis.
DSS colitis mouse model: C57BL/6 mice (20-22 grains) are fed ad lib and assigned to different groups (n=8/group). […] A control group receives vehicle alone. After 24 h, mice are weighed and DSS is added to their drinking water. Mice are then treated with the test compounds and weighed daily and the DSS water is replenished every 72 liars for 5 days, at which point, it is replaced by regular drinking water. Mice are sacrificed on day twelve and clinical scored was assessed. Intestinal tissue for and blood are also collected. Tissues are either flash frozen and kept in −80° C. for RNA and protein isolation or placed in 10% formalin solution for future histological analysis.

[2] = Formulation visual stability (DMA/PG/PEG 300/water); assay type: physicochemical; settings: 25° C., 10-11 mg/mL in DMA/PG/PEG 300/Water
Description: All formulations were conducted with FDA approved excipients and with high purity material such as USP grade quality. Formulation stability of test articles are performed using HPLC purity method described within analytical section. This formula may be used for oral administration of the compounds described herein; […]. Since these compounds have high solubility in lower pH as described in the solubility study section, the intervenous delivery is performed with 100% phosphate buffer solution of pH 6.5 allowing up to 7 mg/mL concentration. The formulated test articles can be store at 4° C. Prior to dosing, it should be warmed and vortexed for about 1 min to make a homogenous solution. If needed, filter through 0.2 μM syringe filter to maintain clean and sterile.

[3] = system: HT-29 colorectal cancer cells; experiment: HT-29 cell viability (Real-Time-Glo); assay type: cell-based; settings: for growth of HT-29 colorectal cancer cells: luminescence at 72 h; for IC50: Homo sapiens, HT-29, 72 hr, read-out: IC50, Cell line: HT-29
Description: Equal volume of 2× RealTime-Glo™ reagent (2 μl of MT Cell Viability Substrate 1,000×, and 2 μl of NanoLuc® Enzyme 1,000×, per 1 ml of media, Promega) was added to each well and cells were incubated at 37° C. Luminescence was evaluated at 72 h.
(§1) To determine the plating density for cell viability assays, for each cell line, cells were counted and diluted to final densities of 2.5, 5, 10 and 20 thousand per 100 μl of their respective growth media per well in 96 well plates. A Promega Real-Time-Glo cell viability kit was used to determine the optimal concentration for cell plating so that each cell line would be within the linear part of its growth curve after 72 hrs in culture. […] Test compounds were then added at different concentrations for the creation of six-point curve and cell density was determined using the Promega Real-Time-Glo cell viability kit after 24, 48, and 72 hrs in culture.
Specifically, the Promega Real-Time-Glo cell viability kit was used to determine the optimal concentration for cell plating so that each cell line would be within the linear part of its growth curve after 72 hrs in culture. […] Test compounds are then added at different concentrations for the creation of six-point curve and cell density is determined using the Promega Real-Time-Glo cell viability kit after 24, 48, and 72 hrs in culture. […]

5637 = 5637 bladder cancer cell viability (Real-Time-Glo); assay type: cell-based; settings: 72 hr; read-out: IC50, Cell line: 5637
Description: (§2) To determine the plating density for cell viability assays, for each cell line, cells were counted and diluted to final densities of 2.5, 5, 10 and 20 thousand per 100 μl of their respective growth media per well in 96 well plates. A Promega Real-Time-Glo cell viability kit was used to determine the optimal concentration for cell plating so that each cell line would be within the linear part of its growth curve after 72 hrs in culture. For the determination of test compound IC50s different cancer cell lines were plated in 96 well plates in the pre-determined optimal density for each cell line. Test compounds were then added at different concentrations for the creation of six-point curve and cell density was determined using the Promega Real-Time-Glo cell viability kit after 24, 48, and 72 hrs in culture. Test compound 72 hr IC50s were calculated using the AAT Bioquest IC50 calculator.
The following compounds are evaluated for their ability to block cancer cell growth in colon (HT-29), liver (HepG2), pancreatic (MiaPaca-2) and bladder (5637) cancer cell lines. Specifically, the Promega Real-Time-Glo cell viability kit was used to determine the optimal concentration for cell plating so that each cell line would be within the linear part of its growth curve after 72 hrs in culture. For the determination of test compound IC50s different cancer cell lines are plated in 96 well plates in the pre-determined optimal density for each cell line. Test compounds are then added at different concentrations for the creation of six-point curve and cell density is determined using the Promega Real-Time-Glo cell viability kit after 24, 48, and 72 hrs in culture. Test compound 72 hr IC50s is calculated using the AAT Bioquest IC50 calculator.

A-498 = A-498 kidney cancer cell viability (Real-Time-Glo); assay type: cell-based; settings: Homo sapiens, A498; 72 hr; read-out: IC50, Cell line: A-498
Description: as §2

HCT-116 = HCT-116 cell viability (Real-Time-Glo); assay type: cell-based; settings: Homo sapiens, 72 hr, read-out: IC50, Cell line: HCT-116
Description: as §1

[4] = 25 mg/kg PO daily, sacrificed day twelve
[5] = 50 mg/kg daily oral, d12 after DSS induction, vs vehicle

Compound | IC50 5637 [µM] | IC50 [3] [µM] | IC50 (A-498) [µM] | IC50 (HCT-116) [µM] | effect on the effects of DSS colitis (in words) ([1]; 25 mg/kg PO daily) | Colon Length ([1]; 25 mg/kg PO daily, day twelve) | Clinical Score ([1]; 25 mg/kg PO daily, day twelve) | DSS Efficacy [1, 4] | growth of HT-29 colorectal cancer cells [3] | other results
COc1cc2c(NC3CCS(=O)(=O)CC3)nc(N3CCC(F)(F)CC3)nc2cc1OCCCN1CCCC1 [Compound 1, 4-((2-(4,4-difluoropiperidin-1-yl)-6-methoxy-7-(3-(pyrrolidin-1-yl)propoxy)quinazolin-4-yl)amino)tetrahydro-2H-thiopyran 1,1-dioxide] |  |  |  |  | alleviation of the effects of DSS colitis | + | + | + | potent anti-cancer activity | DSS-induced weight loss ([1]; 50 mg/kg daily oral): resulted in increased weight; Colon Length [1, 5]: increased; protection against colitis induced weight loss [1]: significant protection against colitis induced weight loss; colitis-induced weight loss ([1]; vs vehicle): significantly prevented; colon length shortening ([1]; vs vehicle): significantly prevented; Appearance ([2]; 30 min): clear; Appearance ([2]; 1 h): clear; Appearance ([2]; 5 h): clear; Appearance ([2]; 24 h): clear; Appearance ([2]; 7 d): clear
COCCN1CCC(Nc2nc(N3CCC(F)(F)CC3)nc3cc(OCCCN4CCCC4)c(OC)cc23)CC1 [Compound 3, 2-(4,4-difluoropiperidin-1-yl)-6-methoxy-N-(1-(2-methoxyethyl)piperidin-4-yl)-7-(3-(pyrrolidin-1-yl)propoxy)quinazolin-4-amine] | 5 to 10 |  | 5 to 10 | 1 to 5 |  |  |  |  | potent anti-cancer activity | 
COCCNc1nc(N2CCC(F)(F)CC2)nc2cc(OCCCN3CCCC3)c(OC)cc12 [Compound 4, 2-(4,4-difluoropiperidin-1-yl)-6-methoxy-N-(2-methoxyethyl)-7-(3-(pyrrolidin-1-yl)propoxy)quinazolin-4-amine] | 10 to 20 | 1 to 5 |  | 1 to 5 |  |  |  |  | potent anti-cancer activity | 
COc1cc2c(NCC3CCN(C)CC3)nc(N3CCC(F)(F)CC3)nc2cc1OCCCN1CCCC1 [Compound 5, 2-(4,4-difluoropiperidin-1-yl)-6-methoxy-N-((1-methylpiperidin-4-yl)methyl)-7-(3-(pyrrolidin-1-yl)propoxy)quinazolin-4-amine] |  |  |  |  | alleviation of the effects of DSS colitis | + | + | + |  | 
COc1cc2c(NC3CCN(C(C)C)CC3)nc(-n3ccnc3)nc2cc1OCCCN1CCCC1 [Compound 156, 2-(1H-imidazol-1-yl)-N-(1-isopropylpiperidin-4-yl)-6-methoxy-7-(3-(pyrrolidin-1-yl)propoxy)quinazolin-4-amine] | 1 to 5 | 1 to 5 | 5 to 10 | 1 to 5 |  |  |  |  |  | 
COc1cc2c(NC3CCN(C(C)C)CC3)nc(C#N)nc2cc1OCCCN1CCCC1 [Compound 235, 4-((1-isopropylpiperidin-4-yl)amino)-6-methoxy-7-(3-(pyrrolidin-1-yl)propoxy)quinazoline-2-carbonitrile] | 5 to 10 |  | 5 to 10 | 1 to 5 |  |  |  |  |  | 
COc1cc2c(NC3CCN(C(C)C)CC3)nc(N3CCC(F)(F)CC3)nc2cc1OCCCN1CCCC1 [Compound 400, 2-(4,4-difluoropiperidin-1-yl)-N-(1-isopropylpiperidin-4-yl)-6-methoxy-7-(3-(pyrrolidin-1-yl)propoxy)quinazolin-4-amine, reference compound] |  | 5 to 10 | 10 to 20 |  | no effect | − | − | − |  | DSS-induced weight loss ([1]; 50 mg/kg daily oral): failed to increase DSS-induced weight loss; Colon Length [1, 5]: not; Appearance ([2]; 30 min): clear; Appearance ([2]; 1 h): clear; Appearance ([2]; 5 h): clear; Appearance ([2]; 24 h): clear; Appearance ([2]; 7 d): clear

Continued, in another order:

IC50 5637 [µM] | IC50 [3] [µM] | IC50 (A-498) [µM] | IC50 (HCT-116) [µM] | Compound | effect on the effects of DSS colitis (in words) ([1]; 25 mg/kg PO daily) | Colon Length ([1]; 25 mg/kg PO daily, day twelve) | Clinical Score ([1]; 25 mg/kg PO daily, day twelve) | DSS Efficacy [1, 4] | growth of HT-29 colorectal cancer cells [3] | other results
10 to 20 | 1 to 5 |  |  | COc1cc2c(NC3CCOCC3)nc(N3CCC(F)(F)CC3)nc2cc1OCCCN1CCCC1 [Compound 2, 2-(4,4-difluoropiperidin-1-yl)-6-methoxy-7-(3-(pyrrolidin-1-yl)propoxy)-N-(tetrahydro-2H-pyran-4-yl)quinazolin-4-amine] | alleviation of the effects of DSS colitis | ++ | ++ | ++ | potent anti-cancer activity | effect on overall efficacy, clinical score and colon length (in words) ([1]; 25 mg/kg PO daily): very strong effect; protection against colitis induced weight loss [1]: significant protection against colitis induced weight loss; colitis-induced weight loss ([1]; vs vehicle): significantly prevented; colon length shortening ([1]; vs vehicle): significantly prevented; Appearance ([2]; 30 min): clear; Appearance ([2]; 1 h): clear; Appearance ([2]; 5 h): clear; Appearance ([2]; 24 h): clear; Appearance ([2]; 7 d): clear
5 to 10 |  |  | 1 to 5 | COc1cc2c(NC3CCOCC3)nc(N3CCCC3)nc2cc1OCCCN1CCCC1 [Compound 164, 6-methoxy-2-(pyrrolidin-1-yl)-7-(3-(pyrrolidin-1-yl)propoxy)-N-(tetrahydro-2H-pyran-4-yl)quinazolin-4-amine] |  |  |  |  |  | DSS Efficacy ([1]; 25 mg/kg PO daily, day twelve): ++
10 to 20 |  |  | 1 to 5 | COc1cc2c(NC3CCOCC3)nc(N3CCC3)nc2cc1OCCCN1CCCC1 [Compound 174, 2-(azetidin-1-yl)-6-methoxy-7-(3-(pyrrolidin-1-yl)propoxy)-N-(tetrahydro-2H-pyran-4-yl)quinazolin-4-amine] |  |  |  |  |  | 
5 to 10 |  | 5 to 10 | 1 to 5 | COc1cc2c(NC3CCN(C(C)C)CC3)nc(N3CCC3)nc2cc1OCCCN1CCCC1 [Compound 234, 2-(azetidin-1-yl)-N-(1-isopropylpiperidin-4-yl)-6-methoxy-7-(3-(pyrrolidin-1-yl)propoxy)quinazolin-4-amine] |  |  |  |  |  | 
